Measured values as given in patent publication US20110071150A1 (priority 2009, published 2011).

Tested on: Jurkat IL-2 Production
Assay: Jurkat IL-2 Production Assay
Assay type: cell-based
Settings: Homo sapiens, Jurkat cell (ATCC), 18-20 h incubation, PHA 5 μg/mL with 1% FBS, or PMA/Ionomycin with 30% FBS (table does not say which)
Protocol: Jurkat IL-2 Production Assay
Cell: Jurkat cell (ATCC) was grown in RPMI 1640 with 10% FBS and 1% penicillin/streptomycin. The cell density was kept at 1.2-1.8×10^6/mL in culture flask before seeding into culture plate, and the cell density in the plate was 0.5×10^6/[…]/well.
Culture media: RPMI 1640 with 1% FBS or 30% FBS for high serum assay.
Test compound: serial dilution was done in 100% DMSO, and intermediate dilution was done with RPMI 1640 medium with 1% FBS. The DMSO final concentration in culture well was 0.25%.
Stimulant: PHA (Sigma#L9017-10MG) was used for the assay with 1% FBS in culture medium, and added after 10 minutes exposure of cell to compound/DMSO. The PHA final concentration in culture well was 5 μg/mL. PMA (Sigma# P-8139 5MG)/Ionomycin (Sigma# 10634-5MG) was used for the assay with 30% FBS in culture medium, and added at same time point as the 1% FBS culture assay. The final concentration of PMA was 50 ng/mL, and Ionomycin final concentration was 500 ng/mL.
Incubation: at 37° C. with 5% CO2 and 95% humidity for 18 h˜20 h.
IC50: IC50 was calculated with the data analysis software XLfit4, General Pharmacology model 251.

SMILES | IC50 [nM]
COc1cc(C)c(-c2ccc3[nH]c(-c4c(F)cccc4F)c(C)c3c2)cn1 [Example 229, 2-(2,6-Difluoro-phenyl)-5-(6-methoxy-4-methyl-pyridin-3-yl)-3-methyl-1H-indole] | 164
Cn1nc(-c2ccccn2)cc1-c1ccc2[nH]c(-c3ccc(F)cc3Cl)cc2c1 [Example 83, 2-(2-Chloro-4-fluoro-phenyl)-5-(2-methyl-5-pyridin-2-yl-2H-pyrazol-3-yl)-1H-indole] | 358
Cc1cc(S(=O)(=O)N(C)C)ccc1-c1ccc2[nH]c(C3CCCCC3)cc2c1 [Example 223, 4-(2-cyclohexyl-1H-indol-5-yl)-N,N,3-trimethylbenzenesulfonamide] | 54
Cc1cc(C(N)=O)ccc1-c1ccc2[nH]c(-c3ccccc3Cl)cc2c1 [Example 128, 4-[2-(2-Chloro-phenyl)-1H-indol-5-yl]-3-methyl-benzamide] | 776
Cc1cc(C#N)ccc1-c1ccc2[nH]c(-c3c(C)noc3C)cc2c1 [Example 151, 4-(2-(3,5-dimethylisoxazol-4-yl)-1H-indol-5-yl)-3-methylbenzonitrile] | 158
Cn1nc(C(F)(F)F)cc1-c1ccc2[nH]c(-c3ccc(Cl)cc3Cl)cc2c1 [Example 34, 2-(2,4-Dichloro-phenyl)-5-(2-methyl-5-trifluoromethyl-2H-pyrazol-3-yl)-1H-indole] | 184
Cc1ccccc1-c1cc2cc(-c3nc(-c4ccccn4)sc3C)ccc2[nH]1 [Example 6, 5-(5-Methyl-2-pyridin-2-yl-thiazol-4-yl)-2-o-tolyl-1H-indole] | 611
Cc1cc(C#N)ccc1-c1ccc2[nH]c(-c3c(F)cc(OCCCC#N)cc3F)cc2c1 [Example 155, 4-(2-(4-(3-cyanopropoxy)-2,6-difluorophenyl)-1H-indol-5-yl)-3-methylbenzonitrile] | 87
Cn1nc(-c2ccccn2)cc1-c1ccc2[nH]c(-c3ccccc3Cl)cc2c1 [Example 81, 2-(2-Chloro-phenyl)-5-(2-methyl-5-pyridin-2-yl-2H-pyrazol-3-yl)-1H-indole] | 501
Cc1cc(C#N)ccc1-c1ccc2[nH]c(-c3ccncc3C)cc2c1 [Example 145, methyl-4-(2-(3-methylpyridin-4-yl)-1H-indol-5-yl)benzonitrile] | 89
COC(=O)c1cc(C)c(-c2ccc3[nH]c(-c4c(F)cccc4Cl)cc3c2)cn1 [Example 117, 5-[2-(2-Chloro-6-fluoro-phenyl)-1H-indol-5-yl]-4-methyl-pyridine-2-carboxylic acid methyl ester] | 19
CCn1nc(C(F)(F)F)cc1-c1ccc2[nH]c(-c3ccnc(OC)c3Cl)cc2c1 [Example 194, 2-(3-chloro-2-methoxypyridin-4-yl)-5-(1-ethyl-3-(trifluoromethyl)-1H-pyrazol-5-yl)-1H-indole] | 139
Cc1ccccc1-c1cc2cc(-c3cc(C(F)(F)F)nn3C)ccc2[nH]1 [Example 60, 5-(2-Methyl-5-trifluoromethyl-2H-pyrazol-3-yl)-2-o-tolyl-1H-indole] | 140
Cc1sc(-c2ccccn2)nc1-c1ccc2[nH]c(-c3ccccc3Cl)cc2c1 [Example 5, 2-(2-Chloro-phenyl)-5-(5-methyl-2-pyridin-2-yl-thiazol-4-yl)-1H-indole] | 223
CCn1nc(C(F)(F)F)cc1-c1ccc2[nH]c(C3=CCCCC3)cc2c1 [Example 195, 2-cyclohexenyl-5-[1-ethyl-3-{trifluoromethyl}-1H-pyrazol-5-yl]-1H-indole] | 782
Fc1cccc(Cl)c1-c1cc2cc(-c3ccc(C(F)(F)F)cc3C(F)(F)F)ccc2[nH]1 [Example 55, 5-(2,4-Bis-trifluoromethyl-phenyl)-2-(2-chloro-6-fluoro-phenyl)-1H-indole] | 79
Cc1cc(S(=O)(=O)N2CCN(C)CC2)ccc1-c1ccc2[nH]c(-c3c(F)cccc3Cl)cc2c1 [Example 170, 2-(2-chloro-6-fluorophenyl)-5-(2-methyl-4-(4-methylpiperazin-1-ylsulfonyl)phenyl)-1H-indole] | 170
COC(=O)c1ccc(-c2ccc3[nH]c(-c4ccc(C(=O)OC)cc4C)cc3c2)c(C)c1 [Example 131, 4-[5-(4-carbomethoxy-2-methyl-phenyl)-1H-indol-2-yl]-3-methyl-benzoic acid methyl ester] | 149
Cc1cc(C#N)ccc1-c1ccc2[nH]c(-c3ccc(C#N)cc3C)cc2c1 [Example 137, 4-(2-(4-Cyano-2-methylphenyl)-1H-indol-5-yl)-3-methylbenzonitrile] | 132

Other lines, results leading:

IC50 [nM] | SMILES
44 | Cn1nc(-c2cncnc2)nc1-c1ccc2[nH]c(-c3c(F)cccc3Cl)cc2c1 [Example 188, 2-(2-Chloro-6-fluoro-phenyl)-5-(2-methyl-5-pyrimidin-5-yl-2H-[1,2,4]triazol-3-yl)-1H-indole]
399 | Cn1nc(-c2cccnc2)cc1-c1ccc2[nH]c(-c3cccc(F)c3F)cc2c1 [Example 84, 2-(2,3-Difluoro-phenyl)-5-(2-methyl-5-pyridin-3-yl-2H-pyrazol-3-yl)-1H-indole]
169 | Cn1nc(-c2cccnc2)cc1-c1ccc2[nH]c(-c3ccccc3Cl)cc2c1 [Example 77, 2-(2-Chloro-phenyl)-5-(2-methyl-5-pyridin-3-yl-2H-pyrazol-3-yl)-1H-indole]
427 | Fc1cccc(F)c1-c1cc2cc(-c3cccc(-c4ncco4)c3)ccc2[nH]1 [Example 24, 2-(2,6-Difluoro-phenyl)-5-(3-oxazol-2-yl-phenyl)-1H-indole]
142 | CC(c1sc(-c2cccnc2)nc1-c1ccc2[nH]c(-c3c(F)cccc3Cl)cc2c1)C(F)(F)F (stereo not drawn) [Example 182, 2-(2-chloro-6-fluoro-phenyl)-5-[2-pyridin-3-yl-5-(2,2,2-trifluoro-1-methyl-ethyl)-thiazol-4-yl]-1H-indole]
169 | Cc1sc(-c2cccnc2)nc1-c1ccc2[nH]c(-c3ccccc3F)cc2c1 [Example 11, 2-(2-Fluoro-phenyl)-5-(5-methyl-2-pyridin-3-yl-thiazol-4-yl)-1H-indole]
178 | Cc1cc(N2CCNCC2)ncc1-c1ccc2[nH]c(-c3c(F)cccc3F)cc2c1 [Example 104, 2-(2,6-Difluoro-phenyl)-5-(4-methyl-6-piperazin-1-yl-pyridin-3-yl)-1H-indole]
318 | Cn1nc(Br)cc1-c1ccc2[nH]c(-c3c(F)cccc3F)cc2c1 [Example 111, 5-(5-Bromo-2-methyl-2H-pyrazol-3-yl)-2-(2,6-difluoro-phenyl)-1H-indole]
135 | Cn1nc(-c2cccnc2)cc1-c1ccc2[nH]c(-c3cc(Cl)ccc3Cl)cc2c1 [Example 87, 2-(2,5-Dichloro-phenyl)-5-(2-methyl-5-pyridin-3-yl-2H-pyrazol-3-yl)-1H-indole]
91 | CCn1nc(-c2cccnc2)cc1-c1ccc2[nH]c(-c3ccccc3C)cc2c1 [Example 80, 5-(2-Ethyl-5-pyridin-3-yl-2H-pyrazol-3-yl)-2-o-tolyl-1H-indole]
65 | CCn1nc(-c2cccnc2)nc1-c1ccc2[nH]c(-c3ccccc3Cl)cc2c1 [Example 185, 2-(2-Chloro-phenyl)-5-(2-ethyl-5-pyridin-3-yl-2H-[1,2,4]-triazol-3-yl)-1H-indole]
448 | COc1ccc(-c2ccc3[nH]c(-c4c(F)cccc4Cl)cc3c2)c(C)n1 [Example 123, 2-(2-Chloro-6-fluoro-phenyl)-5-(6-methoxy-2-methyl-pyridin-3-yl)-1H-indole]
668 | Cc1sc(C2CCOCC2)nc1-c1ccc2[nH]c(-c3c(F)cccc3F)cc2c1 [Example 74, 2-(2,6-Difluoro-phenyl)-5-[5-methyl-2-(tetrahydro-pyran-4-yl)-thiazol-4-yl]-1H-indole]
24 | CCn1nc(-c2cccnc2)nc1-c1ccc2[nH]c(-c3c(F)cccc3F)cc2c1 [Example 205, 2-(2,6-Difluoro-phenyl)-5-(2-ethyl-5-pyridin-3-yl-2H-[1,2,4]triazol-3-yl)-1H-indole]
219 | Cc1sc(-c2ccccn2)nc1-c1ccc2[nH]c(-c3c(F)cccc3F)cc2c1 [Example 4, 2-(2,6-Difluoro-phenyl)-5-(5-methyl-2-pyridin-2-yl-thiazol-4-yl)-1H-indole]
34 | CCn1nc(-c2cccnc2)nc1-c1ccc2[nH]c(-c3c(Cl)cccc3Cl)cc2c1 [Example 186, 2-(2,6-Dichloro-phenyl)-5-(2-ethyl-5-pyridin-3-yl-2H-[1,2,4]triazol-3-yl)-1H-indole]
830 | COc1ccc2c(c1)nc(C(F)(F)F)n2-c1ccc2[nH]c(-c3c(F)cccc3F)cc2c1 [Example 2, 1-[2-(2,6-Difluoro-phenyl)-1H-indol-5-yl]-5-methoxy-2-trifluoromethyl-1H-benzoimidazole]
67 | CCn1nc(C(F)(F)F)cc1-c1ccc2[nH]c(-c3cnccc3C)cc2c1 [Example 191, 5-(1-ethyl-3-(trifluoromethyl)-1H-pyrazol-5-yl)-2-(4-methylpyridin-3-yl)-1H-indole]
44 | CCn1nc(C(F)(F)F)cc1-c1ccc2[nH]c(-c3c(F)cccc3F)cc2c1 [Example 46, 2-(2,6-Difluoro-phenyl)-5-(2-ethyl-5-trifluoromethyl-2H-pyrazol-3-yl)-1H-indole]
908 | COC(=O)c1ccc(-c2ccc3[nH]c(-c4c(F)cccc4F)cc3c2)c(Cl)c1 [Example 88, 4-[2-(2,6-Difluoro-phenyl)-1H-indol-5-yl]-3-chloro-benzoic acid methyl ester]
